“And” between values parts separate entries of the source, which are not always exact repeats. Equal entries are not always repeated. Where two headings read alike, the source gives them in different places.
Legend:
[1] = test system: amphetamine-induced hyperactivity; experiment: Reversal of amphetamine-induced hyperactivity; format: in vivo, Non-Swiss Albino (NSA) mice; details: s.c. or p.o.
D1 receptors = D1 receptors (Homo sapiens, UniProt P21728); experiment: Ligand binding screen at 10 μM
M3 muscarinic receptor = M3 muscarinic receptor (Homo sapiens, UniProt P20309); experiment: R-SAT agonist assay
[2] = target: T1, α1A (Alpha 1A) adrenergic receptor (Homo sapiens, UniProt P35348); details: R-SAT; nr = no significant antagonist or inverse agonist activity up to 1 μM; nr* = nr but significant agonist activity
T1 sequence (P35348 1-466): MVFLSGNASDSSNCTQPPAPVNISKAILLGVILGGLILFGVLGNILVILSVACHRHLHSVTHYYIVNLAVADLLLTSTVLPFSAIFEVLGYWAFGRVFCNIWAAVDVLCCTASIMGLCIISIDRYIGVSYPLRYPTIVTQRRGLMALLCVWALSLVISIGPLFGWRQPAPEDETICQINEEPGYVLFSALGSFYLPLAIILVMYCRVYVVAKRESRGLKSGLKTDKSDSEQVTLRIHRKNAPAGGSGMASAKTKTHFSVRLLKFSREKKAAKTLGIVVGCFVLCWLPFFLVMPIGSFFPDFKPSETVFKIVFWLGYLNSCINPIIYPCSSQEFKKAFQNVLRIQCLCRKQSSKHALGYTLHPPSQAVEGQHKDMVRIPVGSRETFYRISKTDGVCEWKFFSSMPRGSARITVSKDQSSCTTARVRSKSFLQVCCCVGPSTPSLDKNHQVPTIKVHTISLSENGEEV

cFOS expression in brain = details: s.c. 7.5 and 30.0 mg/kg; two hours; western blotting (Young et al.); cited from earlier work
α1 receptors = experiment: Ligand binding screen at 10 μM
5-HT7A receptor = 5-HT7A receptor (Homo sapiens, UniProt P34969); experiment: R-SAT inverse agonist assay
[3] = steady state kinetics in humans (ref. 13); cited from earlier work
5-HT1A receptor = target: T2, 5-HT1A receptor (Homo sapiens, UniProt P08908); experiment: R-SAT competitive antagonist assay; details: R-SAT; nr = no significant antagonist or inverse agonist activity up to 1 μM; nr* = nr but significant agonist activity
T2 sequence (P08908 1-422): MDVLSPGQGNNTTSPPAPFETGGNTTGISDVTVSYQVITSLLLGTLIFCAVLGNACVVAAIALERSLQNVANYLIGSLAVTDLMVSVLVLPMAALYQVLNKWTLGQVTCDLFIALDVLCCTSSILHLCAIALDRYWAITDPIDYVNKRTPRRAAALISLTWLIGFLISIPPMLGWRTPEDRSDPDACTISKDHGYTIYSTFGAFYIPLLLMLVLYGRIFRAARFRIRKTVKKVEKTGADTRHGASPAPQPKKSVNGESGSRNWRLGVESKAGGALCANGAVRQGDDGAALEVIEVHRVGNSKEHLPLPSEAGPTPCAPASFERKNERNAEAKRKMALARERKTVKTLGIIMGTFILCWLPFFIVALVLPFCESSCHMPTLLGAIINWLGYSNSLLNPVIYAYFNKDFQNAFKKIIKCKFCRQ

[4] = Pharmacokinetics after i.v. or oral dose in dogs; format: in vivo, beagle dogs; details: dog; for concentration at 2 min / concentration at 5 min / concentration at 10 min / concentration at 30 min / concentration at 60 min / concentration at 120 min / concentration at 180 min / concentration at 240 min / concentration at 360 min: plasma; for bioavailability: NDMC p.o. 10 mg/kg vs i.v. 1 mg/kg, read-out: BA (oral bioavailability)
[5] = beagle, iv, 1 mg/kg, Plasma concentration after NDMC administration, NDMC i.v. 1 mg/kg
[6] = beagle, iv, 1 mg/kg, Plasma concentration of compound measured after clozapine administration, clozapine i.v. 1 mg/kg
[7] = beagle, po, 10 mg/kg, Plasma concentration after NDMC administration, NDMC p.o. 10 mg/kg
[8] = beagle, po, 10 mg/kg, Plasma concentration of compound measured after clozapine administration, clozapine p.o. 10 mg/kg

Sequence of M3 muscarinic receptor (P20309 whole entry): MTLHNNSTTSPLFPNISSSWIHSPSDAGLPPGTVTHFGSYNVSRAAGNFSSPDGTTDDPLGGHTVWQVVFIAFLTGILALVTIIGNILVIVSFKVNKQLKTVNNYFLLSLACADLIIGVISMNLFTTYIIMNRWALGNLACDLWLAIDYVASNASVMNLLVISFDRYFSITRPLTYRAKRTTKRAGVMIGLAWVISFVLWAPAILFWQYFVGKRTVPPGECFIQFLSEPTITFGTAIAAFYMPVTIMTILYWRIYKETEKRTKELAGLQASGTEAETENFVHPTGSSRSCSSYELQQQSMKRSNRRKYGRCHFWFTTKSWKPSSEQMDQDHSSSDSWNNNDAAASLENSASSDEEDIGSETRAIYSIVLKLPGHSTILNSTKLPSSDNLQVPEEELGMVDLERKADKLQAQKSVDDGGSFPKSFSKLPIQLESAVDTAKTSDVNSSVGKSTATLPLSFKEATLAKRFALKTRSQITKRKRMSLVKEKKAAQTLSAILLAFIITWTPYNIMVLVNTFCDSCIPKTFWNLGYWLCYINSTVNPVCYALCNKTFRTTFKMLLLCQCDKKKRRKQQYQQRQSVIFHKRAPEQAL
Sequence of 5-HT7A receptor (P34969 1-445 isoform P34969-2): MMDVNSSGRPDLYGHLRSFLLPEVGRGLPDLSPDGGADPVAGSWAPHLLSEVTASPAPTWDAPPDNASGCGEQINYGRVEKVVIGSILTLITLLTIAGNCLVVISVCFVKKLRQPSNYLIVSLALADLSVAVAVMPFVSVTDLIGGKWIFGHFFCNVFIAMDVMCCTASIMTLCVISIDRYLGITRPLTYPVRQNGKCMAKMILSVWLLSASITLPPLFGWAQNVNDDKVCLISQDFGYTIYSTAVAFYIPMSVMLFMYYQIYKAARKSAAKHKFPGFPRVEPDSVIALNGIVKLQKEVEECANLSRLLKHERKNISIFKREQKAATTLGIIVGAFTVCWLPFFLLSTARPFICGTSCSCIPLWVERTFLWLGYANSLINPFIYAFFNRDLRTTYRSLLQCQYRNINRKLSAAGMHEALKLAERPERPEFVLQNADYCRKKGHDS
Sequence of D1 receptors (P21728 whole entry): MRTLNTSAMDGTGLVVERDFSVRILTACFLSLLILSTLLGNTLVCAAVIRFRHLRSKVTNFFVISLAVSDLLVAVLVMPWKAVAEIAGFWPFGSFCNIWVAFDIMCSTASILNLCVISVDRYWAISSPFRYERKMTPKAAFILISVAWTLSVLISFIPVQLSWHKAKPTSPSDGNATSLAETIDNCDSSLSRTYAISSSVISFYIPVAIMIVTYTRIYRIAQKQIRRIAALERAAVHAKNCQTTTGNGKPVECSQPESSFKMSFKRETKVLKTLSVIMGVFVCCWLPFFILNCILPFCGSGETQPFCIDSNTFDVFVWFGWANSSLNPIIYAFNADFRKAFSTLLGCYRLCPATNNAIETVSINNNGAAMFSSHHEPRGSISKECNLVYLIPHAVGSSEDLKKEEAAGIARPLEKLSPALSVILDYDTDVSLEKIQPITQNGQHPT

SMILES: Clc1ccc2c(c1)N=C(N1CCNCC1)c1ccccc1N2 [NDMC, 8-chloro-11-(1-piperazinyl)-5H-dibenzo [b,e][1,4] diazepine]
- dose that attenuated amphetamine-induced hyperactivity [1]: 10 mg/kg
- inhibition at 10 µM (D1 receptors): ≥ 90%
- EC50 (M3 muscarinic receptor; M3 pEC50, R-SAT agonist): 0.324 µM and 0.316 µM
- M3 Efficacy (M3 muscarinic receptor; R-SAT, relative to carbachol, No response/nr = no agonist activity up to 10 μM): 27 ± 4%
- pKi α1A, competitive antagonist [2]: 7.3 ± 0.1
- cFOS expression in brain regions (cFOS expression in brain): induction of cFOS expression in the pre-frontal cortex and nucleus accumbens, but not in striatum
- inhibition of binding, α1 (α1 receptors): ≥ 90%
- EC50 (5-HT7A receptor): 0.0501 µM
- pEC50 5HT7A, inverse agonist (5-HT7A receptor; R-SAT, nr = no significant antagonist or inverse agonist activity up to 1 μM): 7.3 ± 0.1
- share of total serum clozapine concentrations [3]: 40-75%
- pKi 5-HT1A, competitive antagonist (5-HT1A receptor): nr and nr^1
- concentration at 2 min [4, 5]: 182 ng/mL
- concentration at 5 min [4, 5]: 73 ± 22 ng/mL
- concentration at 10 min [4, 5]: 50 ± 10 ng/mL
- concentration at 30 min [4, 5]: 35 ± 2 ng/mL
- concentration at 60 min [4, 5]: 32 ± 6 ng/mL
- concentration at 120 min [4, 5]: 28 ± 4 ng/mL
- concentration at 180 min [4, 5]: 27 ± 7 ng/mL
- concentration at 240 min [4, 5]: 27 ± 4 ng/mL
- concentration at 2 min [4, 6]: 0.54 ± 0.12 ng/mL
- concentration at 5 min [4, 6]: 0.47 ± 0.06 ng/mL
- concentration at 10 min [4, 6]: 0.64 ± 0.26 ng/mL
- concentration at 30 min [4, 6]: 1.72 ± 0.75 ng/mL
- concentration at 60 min [4, 6]: 3.55 ± 1.03 ng/mL
- concentration at 120 min [4, 6]: 4.31 ± 1.34 ng/mL
- concentration at 180 min [4, 6]: 4.89 ± 1.41 ng/mL
- concentration at 240 min [4, 6]: 4.44 ± 1.31 ng/mL
- concentration at 10 min [4, 7]: 1 ng/mL
- concentration at 30 min [4, 7]: 14 ± 12 ng/mL
- concentration at 60 min [4, 7]: 67 ± 37 ng/mL
- concentration at 120 min [4, 7]: 155 ± 95 ng/mL
- concentration at 180 min [4, 7]: 249 ± 44 ng/mL
- concentration at 240 min [4, 7]: 274 ± 44 ng/mL
- concentration at 360 min [4, 7]: 261 ng/mL
- concentration at 10 min [4, 8]: 0 ng/mL
- concentration at 30 min [4, 8]: 2.45 ng/mL
- concentration at 60 min [4, 8]: 25.4 ng/mL
- concentration at 120 min [4, 8]: 5.8 ng/mL
- concentration at 180 min [4, 8]: 10.3 ng/mL
- concentration at 240 min [4, 8]: 19.2 ng/mL
- concentration at 360 min [4, 8]: 46.7 ng/mL
- AUC ([4]; beagle, serum, iv, 1 mg/kg): 135 ± 21.3 ng·h/mL
- Cmax ([4]; beagle, serum, iv, 1 mg/kg): 353 ng/mL
- Vd ([4]; beagle, serum, iv, 1 mg/kg): 28.2 ± 4.92 L/kg
- half-life ([4]; beagle, serum, iv, 1 mg/kg): 13.2 ± 7 h
- bioavailability ([4]; beagle, serum, oral, 10 mg/kg): ~44%
- AUC ([4]; beagle, serum, po, 10 mg/kg): 598 ± 112 ng·h/mL
- Cmax ([4]; beagle, serum, po, 10 mg/kg): 286 ng/mL
- Tmax ([4]; beagle, serum, po, 10 mg/kg): 3.3 ± 1.2 h
- bioavailability ([4]; beagle, serum, po, 10 mg/kg): 44%
- time by which Cmax was achieved ([4]; after NDMC p.o. 10 mg/kg): ≤ 3.3 h
- peak NDMC levels as share of peak clozapine levels ([4]; after clozapine): approximately 16%
